In US20030144360A1, “Composition and method for modulating BAR/FXR receptor activity” (Allergan Sales, Inc., priority 2001, published 2003):

T1: BAR-RXRα complex (UniProt P19793+Q62735)
T1 sequence (Q62735 1-469): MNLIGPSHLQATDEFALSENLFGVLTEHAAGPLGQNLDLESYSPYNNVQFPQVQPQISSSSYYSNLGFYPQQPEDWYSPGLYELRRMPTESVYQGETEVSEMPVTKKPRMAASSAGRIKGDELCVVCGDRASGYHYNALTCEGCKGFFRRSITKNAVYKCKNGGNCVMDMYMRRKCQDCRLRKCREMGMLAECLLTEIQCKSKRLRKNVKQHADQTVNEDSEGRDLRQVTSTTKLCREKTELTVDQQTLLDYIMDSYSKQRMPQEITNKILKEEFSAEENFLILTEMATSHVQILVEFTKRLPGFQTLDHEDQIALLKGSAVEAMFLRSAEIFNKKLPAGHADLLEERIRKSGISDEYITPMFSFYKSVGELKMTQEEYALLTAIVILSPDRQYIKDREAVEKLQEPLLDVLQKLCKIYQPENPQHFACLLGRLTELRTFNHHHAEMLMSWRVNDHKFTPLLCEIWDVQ
T1 sequence (P19793 1-462): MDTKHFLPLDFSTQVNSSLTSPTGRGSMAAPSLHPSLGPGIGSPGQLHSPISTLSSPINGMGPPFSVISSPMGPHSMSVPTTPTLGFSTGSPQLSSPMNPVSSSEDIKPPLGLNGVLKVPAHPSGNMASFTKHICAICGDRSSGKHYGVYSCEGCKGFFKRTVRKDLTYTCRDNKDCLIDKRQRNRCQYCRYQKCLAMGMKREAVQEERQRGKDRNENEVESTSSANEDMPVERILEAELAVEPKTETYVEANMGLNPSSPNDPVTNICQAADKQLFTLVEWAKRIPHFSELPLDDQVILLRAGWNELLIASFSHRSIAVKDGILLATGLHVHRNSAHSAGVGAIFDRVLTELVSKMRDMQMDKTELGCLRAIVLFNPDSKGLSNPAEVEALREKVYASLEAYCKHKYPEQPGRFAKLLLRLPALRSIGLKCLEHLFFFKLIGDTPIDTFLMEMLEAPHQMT

T2: GAL-L-hRXRa (Homo sapiens, UniProt P19793)
T2 sequence (P19793 203-462): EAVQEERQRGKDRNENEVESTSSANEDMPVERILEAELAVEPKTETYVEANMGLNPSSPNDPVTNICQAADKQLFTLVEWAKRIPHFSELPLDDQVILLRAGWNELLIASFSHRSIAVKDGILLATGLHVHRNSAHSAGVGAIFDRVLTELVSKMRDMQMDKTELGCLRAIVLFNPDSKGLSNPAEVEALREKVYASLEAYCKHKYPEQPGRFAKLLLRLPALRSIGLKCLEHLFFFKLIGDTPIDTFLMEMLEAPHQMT


Key:
BAR-RXRα complex = molecular target: T1, BAR-RXRα complex; settings: cited from earlier work
GAL-L-hRXRa = molecular target: T2, GAL-L-hRXRa; assay: Co-transfection luciferase assay, MH100 × 4 reporter, GAL-L-hRXRa alone; settings: 50 μM CDCA
Method: CV-1 African Green Monkey cells were grown in Dulbecco's Modified Eagle's medium supplemented with 10% resin-charcoal stripped fetal bovine serum (FBS), 50 U/ml penicillin G and 50 μg/ml streptomycin sulfate (DMEM-FBS) at 37° C. in 5% CO2. One day prior to transfection, cells were plated to 50-80% confluence using phenol red-free DMEM-FBS. Cells were transiently transfected by lipofection as described in Forman et al., 81 Cell 687 (1995). Liposomes (N-[1-(2,3-dioleoyloxy)propyl]-N,N,N-ammonium methyl sulfate, sold by Boehringer Mannheim under the name DOTAP) were formed according to the manufacturer's instructions. The liposomes contained reporter gene constructs (300 ng/10^5 cells); cytomegalovirus driven expression vectors (25 ng/10^5 cells) were added as indicated along with CMX-Bgal (500 ng/10^5 cells) as an internal control. After 2 hours the liposomes were removed and replaced with fresh media. Cells were incubated for approximately 40 hours with phenol red-free DMEM-FBS containing the indicated compounds. After exposure to the specified ligand, the cells were harvested.
The harvested cells were assayed for the presence of luciferase activity. Cells were lysed in 0.1 M KPO4 (pH 7.8), 1.0% TRITON® X-100, 1.0 mM dithiolthreitol (DTT) and 2 mM ethylenediamine tetracetic acid (EDTA). Luciferase activity was measured by reaction of the cell lysates with luciferin in a reaction buffer comprising: 20 mM tricine, 1.07 mM Mg(CO3)4-Mg(OH)2-5H2O, 2.67 mM MgSO4.7H2O, 0.1 mM EDTA, 0.5 mM Sodium luciferin, 0.15 mg/ml Coenzyme A, 5 mM DTT, and 0.5 mM adenosine triphosphate (ATP). Resulting chemiluminescence was measured in a luminometer. […] All points were assayed in triplicate and varied by less than 15%. Each experiment was repeated three or more times with similar results.
As shown below, in most cases hRXRop was recombinantly coexpressed with one other of the indicated receptor constructs, so as to permit the formation of hetero-or homodimers containing hRXRop.
Expression of the luciferase reporter gene product was detected and quantified as described above.

[1] = test system: other nuclear hormone receptors; settings: cited from earlier work
[2] = molecular target: BAR/FXR:RXR heterodimer (CV-1 cells) (/ Homo sapiens, UniProt Q62735;P19793 SEQ:1-469,SEQ:1-462); assay: cell_activity; CV-1, 100 uM CDCA; text gives IBABP IR-1 reporter, FIG. 1A legend gives EcREx6; settings: label: 32P (gel shift)

Molecule | activation of the BAR-RXR complex (BAR-RXRα complex) | other results
CC(C)=CCC/C(C)=C/CO [geraniol] | did not activate | 
CC(C)=CCC/C(C)=C/CC/C(C)=C/CC/C=C(\C)CC/C=C(\C)CCC=C(C)C [squalene] | did not activate | 
CC(C)CCC[C@@H](C)[C@H]1CC[C@H]2[C@@H]3CC=C4C[C@@H](O)CC[C@]4(C)[C@H]3CC[C@]12C [cholesterol] | did not activate | 
C[C@H](CCC(=O)O)[C@H]1CC[C@H]2[C@@H]3[C@H](O)C[C@@H]4C[C@H](O)CC[C@]4(C)[C@H]3CC[C@]12C [CDCA, chenodeoxycholic acid, reference compound] |  | Reporter Activity (GAL-L-hRXRa): 0.38
COC(=O)/C=C(\C)CC/C=C(\C)CC[C@H]1OC1(C)C [JH III, juvenile hormone III] | activated | activation of other nuclear hormone receptors [1]: failed to activate; activation of BAR/FXR or RXR alone (BAR-RXRα complex; either receptor alone): does not activate
CC(C)=CCCC(C)=CCCC(C)=CC=O [farnesal] | somewhat less strongly | 
CC(C)=CCCC(C)=CCCC(C)=CC(=O)O [farnesoic acid] | somewhat less strongly | 
CC(C)=CCC/C(C)=C/CC/C(C)=C/CC/C(C)=C/CO [geranylgeraniol] | somewhat less strongly | 
IBABP IR-1 BAR/FXR response element (dsDNA) DNA 1: CCTTAAGGTGAATAACCTTGGGGCTCC DNA 2: GGAGCCCCAAGGTTATTCACCTTAAGG |  | activity [2]: ~200 fold activation
